Test results taken from ChEMBL document CHEMBL1131656, “Diimidazo[1,2-c:4',5'-e]pyrimidines: N6-N1 conformationally restricted adenosines” (Bioorg Med Chem Lett, 1998).

Assays:
[1] = target: Adenosine receptors; A1 & A2a (Rattus norvegicus) (UniProt P25099+P30543); assay: Ratio of Ki for A2A and A1 receptors; assay type: protein assay
Adenosine receptor A2a = Adenosine receptor A2a (Rattus norvegicus, UniProt P30543); assay: Binding affinity against Adenosine A2a receptor from rat striata
Adenosine receptor A1 = target: T1, Adenosine receptor A1 (Rattus norvegicus, UniProt P25099); assay: Binding affinity for rat brain Adenosine A1 receptor
T1 sequence (P25099 whole entry): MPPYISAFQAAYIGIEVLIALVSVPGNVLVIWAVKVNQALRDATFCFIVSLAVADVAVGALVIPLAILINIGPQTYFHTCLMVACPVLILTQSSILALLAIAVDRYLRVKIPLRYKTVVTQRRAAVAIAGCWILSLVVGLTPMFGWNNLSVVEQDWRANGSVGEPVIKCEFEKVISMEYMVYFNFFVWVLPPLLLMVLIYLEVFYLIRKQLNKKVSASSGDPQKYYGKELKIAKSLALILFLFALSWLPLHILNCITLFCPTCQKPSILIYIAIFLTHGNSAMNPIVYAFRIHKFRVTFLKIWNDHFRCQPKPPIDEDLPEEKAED

[2] = target: Adenosine receptor A2a (Rattus norvegicus) (UniProt P30543); assay: Binding affinity against Adenosine A2a receptor from rat striata at a concentration of 10e-3 uM
Chain of Adenosine receptor A2a (Rattus norvegicus) (P30543 whole entry): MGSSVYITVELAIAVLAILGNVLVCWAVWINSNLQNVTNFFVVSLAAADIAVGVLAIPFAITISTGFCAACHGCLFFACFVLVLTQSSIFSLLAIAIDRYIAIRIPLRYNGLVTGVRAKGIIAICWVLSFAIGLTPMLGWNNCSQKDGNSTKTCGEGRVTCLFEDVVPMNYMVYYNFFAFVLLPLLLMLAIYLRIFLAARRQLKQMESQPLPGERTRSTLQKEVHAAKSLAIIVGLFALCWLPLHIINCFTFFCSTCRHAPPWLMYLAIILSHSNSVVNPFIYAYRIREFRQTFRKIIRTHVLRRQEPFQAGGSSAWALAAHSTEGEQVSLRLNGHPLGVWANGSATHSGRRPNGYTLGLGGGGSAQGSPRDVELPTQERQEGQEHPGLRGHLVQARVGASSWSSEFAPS

Chain of Adenosine receptor A2a (P30543 whole entry): as above
Chain of Adenosine receptors; A1 & A2a (Rattus norvegicus) (P30543 whole entry, looked up, one chain of several): as the sequence (P30543 whole entry) above

Compound	Ratio [1]	Ki (Adenosine receptor A2a) [µM]	Ki (Adenosine receptor A1) [µM]	inhibition [2] [%]
CCCOC1=Nc2c(cnn2-c2ccccc2)C2=N[C@@H](Cc3ccccc3)CN12	0.35	3.3	–	–
OC[C@@H]1OC(n2cnc3c2N=CN2C[C@@H](Cc4ccccc4)N=C32)[C@@H](O)[C@H]1O (some centres undefined)	6	13.5	2.23	–
CCCOC1=Nc2c(cnn2-c2ccccc2)C2=N[C@@H](C)[C@H](c3ccccc3)N12	1.4	45	–	–
OC[C@@H]1OC(n2cnc3c2N=CN2C[C@H](c4ccccc4)N=C32)[C@@H](O)[C@H]1O (some centres undefined)	42	189	4.54	–
OC[C@@H]1OC(n2cnc3c2N=CN2C[C@H](Cc4ccccc4)N=C32)[C@@H](O)[C@H]1O (some centres undefined)	19	57.1	2.99	–
OC[C@@H]1OC(n2cnc3c2N=CN2C[C@@H](c4ccccc4)N=C32)[C@@H](O)[C@H]1O (some centres undefined)	4.6	17.5	3.82	–
CCCOC1=Nc2c(cnn2-c2ccccc2)C2=N[C@H](Cc3ccccc3)CN12	> 100	> 100	–	–
C[C@@H]1N=C2c3ncn(C4O[C@@H](CO)[C@H](O)[C@@H]4O)c3N=CN2[C@H]1c1ccccc1 (some centres undefined)	70	–	11.2	45
CCCOC1=Nc2c(ncn2-c2ccccc2)C2=N[C@H](Cc3ccccc3)CN12	22	72	–	–
C[C@H]1N=C2c3ncn(C4O[C@@H](CO)[C@H](O)[C@@H]4O)c3N=CN2[C@@H]1c1ccccc1 (some centres undefined)	4.4	55.5	12.6	–
CCCOC1=Nc2c(ncn2-c2ccccc2)C2=N[C@@H](Cc3ccccc3)CN12	0.18	–	–	–
CCCOC1=Nc2c(cnn2-c2ccccc2)C2=N[C@H](C)[C@@H](c3ccccc3)N12	1.5	11	–	–
